Measured values taken from article PMC3954451 (Journal of Medicinal Chemistry, 2014).

Legend:
[1] = cited from earlier work
[2] = tested on: Caco-2 cells; settings: cited from earlier work
[3] = tested on: Caco-2 cells; settings: 10 μM, 2 h

| Compound | membrane permeability in the apical to basolateral (A→B) direction, in words [3] | other results |
| --- | --- | --- |
| Nc1ccccn1 [2-aminopyridine] |  | pKa [1]: 7.1 |
| Cl.Cl.N=C(Nc1cccc(CNCCc2cccc(F)c2)c1)c1cccs1 [Compound 3] |  | Caco-2 permeability, in words [2]: poor |
| Cl.Cl.Nc1ccc2ccc(CCNCCc3cccc(F)c3)cc2n1 [Compound 7, 7-[(3-Fluorophenethylamino)ethyl]quinolin-2-amine Dihydrochloride] | good |  |
| Cl.Cl.Cl.Nc1ccc2ccc(CCNCCc3cccc(Cl)c3)cc2n1 [Compound 15, 7-[(3-Chlorophenethylamino)ethyl]quinolin-2-amine Dihydrochloride] | good |  |
